Source: patent publication US6686352B2, “Substituted imidazo [1,5-a] pyrimido [5,4-d] [1] benzazepine derivatives” (Hoffmann-La Roche Inc., priority 2001, dated 2004)

Target: T1, GABA A receptor α5β3γ2 (α5 subunit) (Rattus norvegicus, UniProt P18508+P19969)
T1 construct: expressed in transfected cells; host or cells: SF9 insect cells (membrane preparation)
Assay: [3H]flumazenil ([3H]Ro 15-1788) competition binding assay, membranes of SF9 cells expressing rat GABA A receptors
Settings: displacement of [3H]Ro 15-1788 (0.5 nM for α5), 1 hour at 4° C., means of two determinations; especially preferred compounds
Description: The affinity of compounds at GABA A receptor subtypes was measured by competition for [^3H]flumazenil ([^3H]Ro 15-1788) (85 Ci/mmol; Amersham) binding to SF9 cells expressing rat receptors of composition α1β3γ2, α2β3γ2, α3β3γ2 and α5β3γ2.
Cell pellets were suspended in Krebs-tris buffer (4.8 mM KCl, 1.2 mM CaCl2, 1.2 mM MgCl2, 120 mM NaCl, 15 mM Tris; pH 7.5; binding assay buffer), homogenized by polytron for ca. 15 sec on ice and centrifuged in UZ for 30 min at 4° C. (100000 g; rotor: TFT 4594=[…]). The cell pellets were re-suspended in Krebs-tris buffer and homogenized by polytron for ca. 15 sec on ice. Aliquots of 1 ml were prepared, protein was measured (Bradford method) and the resulting membrane aliquots were stored at −70° C.
Radioligand binding assays were carried out in a volume of 200 μL (96-well plates) which contained 100 μL of cells, [^3H]Ro 15-1788 at a concentration of 1 nM for (α1, α2, α3 subunits and 0.5 nM for α5 subunits and the test compound in the range of 10^−10−3×10^−6 M. Nonspecific binding was defined by 10^−5 M diazepam and typically represented less than 5% of the total binding. Assays were incubated to equilibrium for 1 hour at 4° C. and harvested onto GF/C uni-filters (Packard) by filtration using a Packard harvester and washing with ice-cold wash buffer (50 mM Tris; pH 7.5). After drying, filter-retained radioactivity was detected by liquid scintillation counting. Ki values were calculated using Excel-Fit (Microsoft) and are the means of two determinations.
In the case of “6-Propyl-9H-imidazo[1,5-a]pyrimido[5,4-d][1]benzazepine-10-carboxylic Acid Ethyl Ester [Example 2]”, the Ki is reported as 5.5 nM. With “9H-Imidazo[1,5-a]pyrimido[5,4-d][1]benzazepine-10-carboxylic Acid Ethyl Ester [Example 1]” the Ki was 3.7 nM. “6-Cyclopropyl-9H-imidazo[1,5-a]pyrimido[5,4-d][1]benzazepine-10-carboxylic Acid Ethyl Ester [Example 4]” gave a Ki of 7.6 nM. “6-[(4-Methoxyphenyl)Methyl]-9H-imidazo[1,5-a]pyrimido[5,4-d][1]benzazepine-10-carboxylic Acid Ethyl Ester [Example 6]” gave a Ki of 13.8 nM. With “3-Bromo-6-methyl-9H-imidazo[1,5-a]pyrimido[5,4-d][1]benzazepine-10-carboxylic Acid Ethyl Ester [Example 22]” the Ki was 12.5 nM. With “3-Fluoro-6-(1-methylethyl)-9H-imidazo[1,5-a]pyrimido[5,4-d][1]benzazepine-10-carboxylic Acid Ethyl Ester [Example 10]” the Ki was 11.2 nM. With “6-(1-Methylethyl)-9H-imidazo [1,5-a]pyrimido[5,4-d][1]benzazepine-10-carboxylic Acid Ethyl Ester [Example 3]” the Ki was 8.9 nM. Compound “6-Methyl-9H-imidazo[1,5-a]pyrimido[5,4-d][1]benzazepine-10-carboxylic Acid Ethyl Ester [Example 29]” has a Ki of 3.8 nM. Work on “3-Fluoro-6-methyl-9H-imidazo[1,5-a]pyrimido[5,4-d][1]benzazepine-10-carboxylic Acid Ethyl Ester [Example 8]” yielded a Ki of 4.6 nM. For “3-Fluoro-6-propyl-9H-imidazo[1,5-a]pyrimido[5,4-d][1]benzazepine-10-carboxylic Acid Ethyl Ester [Example 9]”, the Ki was 8 nM. “6-Cyclopropyl-3-fluoro-9H-imidazo[1,5-a]pyrimido[5,4-d][1]benzazepine-10-carboxylic Acid Ethyl Ester [Example 11]” gave a Ki of 7.8 nM.

System: not given
Assay: not given
Settings: not given
Compound `Cc1ncc2n1-c1ccccc1-c1ncnc(-c3nc(C4CC4)no3)c1C2` has a melting point of 216 to 218 °C. In the case of `CCOC(=O)c1ncnc2c1Cc1cnc(Cc3ccc(OC)cc3)n1-c1cc(Cl)ccc1-2`, the melting point is reported as 192 °C. Work on `CCOC(=O)c1ncnc2c1Cc1cnc(Cc3c[nH]c4ccccc34)n1-c1cc(F)ccc1-2` yielded a melting point of 230 °C. In the case of `CCOC(=O)c1ncnc2c1Cc1cnc(Cc3ccc(OC)cc3)n1-c1cc(C)c(C)cc1-2`, the melting point is reported as 150 °C. Work on `CCOC(=O)c1ncnc2c1Cc1cnc(Cc3ccc(OC)cc3)n1-c1cc(F)ccc1-2` yielded a melting point of 185 °C. `CCCc1ncc2n1-c1cc(C)ccc1-c1ncnc(C(=O)OCC)c1C2` showed a melting point of 250 °C. With `Cc1ncc2n1-c1ccccc1-c1ncnc(C(=O)O)c1C2` the melting point was 285 to 287 °C. Compound `CCOC(=O)c1ncnc2c1Cc1cnc(C)n1-c1cc(C)ccc1-2` has a melting point of 200 °C. With `CCOC(=O)c1ncnc2c1Cc1cnc(C(C)(C)C)n1-c1cc(F)ccc1-2` the melting point was 233 °C. Compound `CCOC(=O)c1ncnc2c1Cc1cnc(-c3ccccc3)n1-c1ccccc1-2` has a melting point of 244 to 246 °C. In the case of `CCOC(=O)c1ncnc2c1Cc1cnc(C(C)(C)C)n1-c1ccccc1-2`, the melting point is reported as 250 °C. With `CCOC(=O)c1ncnc2c1Cc1cnc(Cc3c[nH]c4ccccc34)n1-c1ccccc1-2` the melting point was 120 °C. `CCOC(=O)c1ncnc2c1Cc1cnc(Cc3c[nH]c4ccccc34)n1-c1cc(Cl)ccc1-2` gave a melting point of 120 °C. `CCOC(=O)c1ncnc2c1Cc1cncn1-c1cc(Br)ccc1-2` showed a melting point of 210 °C. `CCOC(=O)c1ncnc2c1Cc1cnc(Cc3ccc(OC)cc3)n1-c1cc(Br)ccc1-2` showed a melting point of 180 °C. Work on `CCOC(=O)c1ncnc2c1Cc1cnc(C3CC3)n1-c1cc(C)ccc1-2` yielded a melting point of 250 °C. Work on `CCCc1ncc2n1-c1cc(C)c(C)cc1-c1ncnc(C(=O)OCC)c1C2` yielded a melting point of 213 °C. Work on `CCOC(=O)c1ncnc2c1Cc1cnc(Cc3c[nH]c4ccccc34)n1-c1cc(C)c(C)cc1-2` yielded a melting point of 135 °C. Work on `CCOC(=O)c1ncnc2c1Cc1cnc(C3CC3)n1-c1cc(Br)ccc1-2` yielded a melting point of 230 °C. In the case of `CCOC(=O)c1ncnc2c1Cc1cnc(C3CC3)n1-c1cc(Cl)ccc1-2`, the melting point is reported as 230 °C. `CCOC(=O)c1ncnc2c1Cc1cnc(C(C)(C)C)n1-c1cc(Cl)ccc1-2` showed a melting point of 180 °C. With `CCOC(=O)c1ncnc2c1Cc1cnc(C(C)C)n1-c1cc(Cl)ccc1-2` the melting point was 192 °C. Compound `CCOC(=O)c1ncnc2c1Cc1cnc(C)n1-c1cc(C)c(C)cc1-2` has a melting point of 210 °C.
